Source: ChEMBL document CHEMBL3882731, “Novel sulfonaminoquinoline Hepcidin antagonists” (2014)
pIC50: −log10 of the molar value.

Each compound was assayed against T1, Ferroportin (Homo sapiens, UniProt Q9NP59) (assay: Antagonist activity at C-terminal halo-tag fused human ferroportin expressed in MDCK cells assessed as inhibition of hepcidin-induced ferroportin internalization after overnight incubation by Draq5 staining-based fluorescence assay).
T1 sequence (Q9NP59 whole entry): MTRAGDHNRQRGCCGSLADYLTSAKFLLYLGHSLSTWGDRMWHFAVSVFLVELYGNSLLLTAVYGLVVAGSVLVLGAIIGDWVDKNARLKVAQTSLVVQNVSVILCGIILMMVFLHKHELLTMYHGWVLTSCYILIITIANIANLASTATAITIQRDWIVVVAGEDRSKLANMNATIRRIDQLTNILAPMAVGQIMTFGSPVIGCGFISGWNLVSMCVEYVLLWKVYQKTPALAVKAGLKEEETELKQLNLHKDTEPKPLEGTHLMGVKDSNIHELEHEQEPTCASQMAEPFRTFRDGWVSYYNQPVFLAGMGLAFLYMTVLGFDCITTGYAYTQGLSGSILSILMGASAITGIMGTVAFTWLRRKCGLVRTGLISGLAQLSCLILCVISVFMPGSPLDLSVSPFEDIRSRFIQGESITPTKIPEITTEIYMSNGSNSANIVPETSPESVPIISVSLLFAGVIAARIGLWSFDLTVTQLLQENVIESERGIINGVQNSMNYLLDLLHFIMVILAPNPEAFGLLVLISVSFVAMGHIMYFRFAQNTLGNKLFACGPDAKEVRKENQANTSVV
Type: cell-based

pIC50 | Compound
4.00 | O=[N+]([O-])c1cc(C(F)(F)F)ccc1S(=O)(=O)Nc1cccc2cccnc12
4.00 | O=S(=O)(Nc1ccc(Cl)c2cccnc12)c1ccc(Cl)cc1Cl
4.00 | CC(=O)Nc1cc(C(F)(F)F)ccc1S(=O)(=O)Nc1cccc2cccnc12
4.00 | CN1c2c(ccc3cccnc23)-c2ccccc2S1(=O)=O
4.00 | COc1ccc(S(=O)(=O)Nc2cccc3cccnc23)c(N)c1
4.00 | Nc1cc(C(F)(F)F)ccc1S(=O)(=O)Nc1ccc(Cl)c2cccnc12
4.00 | COc1ccc(S(=O)(=O)Nc2cccc3cccnc23)cc1
4.00 | Cc1ccc2cccc(NS(=O)(=O)c3ccccc3N)c2n1
4.00 | O=S(=O)(Nc1c(Cl)ccc2cccnc12)c1ccccc1
4.00 | COc1ccc2cccnc2c1NS(=O)(=O)c1ccccc1
4.00 | O=S(=O)(Nc1cccc2cccnc12)c1c(Cl)cccc1Cl
4.00 | Cc1ccc2cccc(NS(=O)(=O)c3ccccc3)c2n1
4.00 | O=S(=O)(Nc1cc(Cl)cc2cccnc12)c1ccccc1
4.00 | COc1ccccc1S(=O)(=O)Nc1cccc2cccnc12
4.30 | COC(=O)c1ccnc2c(NS(=O)(=O)c3ccccc3)cccc12
4.00 | COc1cc(NS(=O)(=O)Nc2c(F)cccc2F)c2ncccc2c1
4.00 | COc1ccc(S(=O)(=O)Nc2cccc3ccc(C)nc23)c(N)c1
4.00 | CCOc1cc(NS(=O)(=O)c2ccccc2)c2ncccc2c1
4.00 | Cc1cccc(Cl)c1S(=O)(=O)Nc1cccc2cccnc12

pIC50 | Compound
4.00 | COc1cc(NS(=O)(=O)c2ccc(Cl)cc2Cl)c2ncccc2c1
4.00 | COc1cc(NS(=O)(=O)Nc2cccc(Cl)c2C)c2ncccc2c1
4.00 | Cc1ccc2ccc3c(c2n1)NS(=O)(=O)c1ccccc1-3
4.00 | COc1cc2cccnc2c2c1-c1ccccc1S(=O)(=O)N2
4.00 | Cc1c(Cl)cccc1NS(=O)(=O)Nc1ccc(Cl)c2cccnc12
4.00 | Cc1cc(C)c(S(=O)(=O)Nc2c(Cl)cc(Cl)c3cccnc23)c(C)c1
4.00 | Cc1cc(NS(=O)(=O)c2ccccc2)c2ncccc2c1Cl
4.00 | COc1ccnc2c3c(ccc12)-c1ccccc1S(=O)(=O)N3
4.00 | COc1ccnc2c(NS(=O)(=O)c3ccccc3)cccc12
4.00 | Cc1ccccc1S(=O)(=O)Nc1cccc2cccnc12
4.00 | O=S(=O)(Nc1c(O)ccc2cccnc12)c1ccccc1
4.00 | O=S(=O)(Nc1cccc2ccc(Cl)nc12)c1ccccc1
4.00 | Cc1ccc2cccnc2c1NS(=O)(=O)c1ccccc1
4.00 | Cc1ccc(S(=O)(=O)Nc2cccc3cc(C)cnc23)c(N)c1
4.00 | O=S(=O)(Nc1ccc(Br)c2cccnc12)c1ccccc1
4.00 | Cc1cc(NS(=O)(=O)c2ccccc2)c2ncccc2c1C
4.00 | Cc1cnc2c(NS(=O)(=O)c3ccc(Cl)cc3Cl)cccc2c1
4.00 | CCc1ccc2cccnc2c1NS(=O)(=O)c1ccccc1
4.00 | CC(C)c1ccc2cccnc2c1NS(=O)(=O)c1ccccc1
